Source: PubChem BioAssay (NCI)
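Tested at 5 concentrations; 48 h exposure; 96-well plates; endpoints linearly interpolated, else capped at highest concentration. The concentration for 50% growth inhibition is given as GI50. TGI is the concentration that stops growth completely.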

Columns and labels:
Experiment in all cases: NCI tumour cell line growth inhibition, 48 h
[1] = system: LXFL 529 NSCLC
[2] = system: M19-MEL melanoma
[3] = system: XF 498 CNS
[4] = system: RXF-631 renal
[5] = system: BT-549 breast
[6] = system: MDA-N
[7] = system: MCF7 breast
[8] = system: MDA-MB-435
[9] = system: MDA-MB-231 breast
[10] = system: P388/ADR leukemia
[11] = system: P388 leukemia

Row | Structure (SMILES) | TGI [1] [µM] | TGI [2] [µM] | TGI [3] [µM] | TGI [4] [µM] | other results
1 | CCCCCCCCCCCCOC(=S)NCCCC | > 100 | > 100 | 31.9 | 55.6 | –
2 | COc1ccc(-c2cc(=O)c3cc4c(cc3[nH]2)OCO4)c(OC)c1OC | > 100 | > 100 | > 100 | – | –
3 | CCCc1[nH]nc(CCC(=O)N(Cc2ccccc2)Cc2ccccc2)c1CC | > 100 | > 100 | > 100 | > 100 | –
4 | c1cc(-c2cn3ccsc3n2)ccn1 | > 100 | > 100 | > 100 | > 100 | –
5 | C=C1C(=O)O[C@H]2[C@H]1[C@H](OC(=O)/C(C)=C\C)CC(=C)[C@@H]1[C@H](O)[C@H]3O[C@@]3(C)[C@@]12O | > 100 | > 100 | > 100 | > 100 | –
6 | O=C(c1ccc(F)cc1)c1cccc(C(=O)c2ccc(F)cc2)n1 | > 100 | > 100 | > 59.7 | – | TGI [5]: 18.5 µM; TGI [6]: > 100 µM; TGI [7]: > 100 µM; TGI [8]: > 100 µM; TGI [9]: > 100 µM
7 | NC(=S)N/N=C(/CC(=O)c1ccccc1)C(=O)Nc1ccc(Cl)c(Cl)c1 | > 100 | > 100 | – | – | –
8 | CC(=O)NC(CCCNCc1ccccc1)C(=O)NCc1ccccc1 (stereo not given) | > 100 | > 100 | > 100 | > 100 | –
9 | CNS(=O)(=O)NN(C)S(=O)(=O)c1ccc(F)cc1 | > 100 | – | > 100 | – | –
10 | COc1cccc(NC(=O)CC(=O)N2N=C(N(CCC#N)c3ccc(Cl)cc3)CC2c2ccccc2)c1 (stereo not given) | > 100 | > 100 | – | – | –
11 | CN(C)/C=C/c1nnc([N+](=O)[O-])s1 | – | – | – | – | TGI [5]: 34.7 µM; TGI [6]: 17.4 µM; TGI [7]: 8.01 µM; TGI [8]: 14.2 µM; TGI [9]: 85.9 µM
12 | Cc1ccc(C(=O)O/N=C2/CCC/C2=C\c2ccccc2)cc1 | > 100 | > 100 | – | – | –
13 | CN(C(=O)C12C3C4C5C3C1(C(=O)O)C5C42)C(C)(C)C (stereo not given) | > 100 | > 100 | > 100 | > 100 | –
14 | O=C([O-])c1ccccc1Nc1ccccn1.O=C([O-])c1ccccc1Nc1ccccn1.[Ni+2] | > 100 | > 100 | – | – | GI50 [1]: 55.2 µM; GI50 [2]: > 100 µM
15 | COC(=O)CCC(NC(=S)N/N=C(\C)c1nccs1)C(=O)OC (stereo not given) | > 100 | > 100 | > 100 | > 100 | –
16 | COC(=O)c1csnn1 | > 100 | > 100 | > 100 | – | –
17 | Cc1ccc(-c2c(N)[n+]([O-])c3ccccc3[n+]2[O-])cc1 | 18.3 | 24.8 | 19.5 | 3.19 | –
18 | COc1c2c(c3c(c1CCC(=O)O)OC(C)(C)C=C3)OC(C)(C)C=C2 | – | – | – | – | TGI [5]: > 100 µM; TGI [6]: > 100 µM; TGI [7]: > 100 µM; TGI [8]: > 100 µM; TGI [9]: > 100 µM
19 | O=C(CC(=O)CC(O)(C(F)(F)F)C(F)(F)F)CC(O)(C(F)(F)F)C(F)(F)F | – | – | – | – | TGI [5]: > 10 µM; TGI [6]: > 10 µM; TGI [7]: > 10 µM; TGI [8]: > 10 µM; TGI [9]: > 10 µM
20 | CCCCCCCCCc1cc(=O)c2ccc(OCc3ccccc3)cc2o1 | > 100 | > 100 | > 100 | – | –
21 | COc1ccccc1NC(=O)C1=C(C)NC(C)=C(C(=O)Nc2ccccc2OC)C1c1ccccc1F | > 100 | – | – | > 100 | –
22 | C=CCC1([C@H](C)[C@@H](OC(C)=O)c2cc(OC)c(OC)c(OC)c2)C[C@@H](OC)CCC1=O (stereo not given in full) | 31.2 | 91.3 | 32.9 | – | –

Row | Structure (SMILES) | TGI [1] [µM] | TGI [2] [µM] | TGI [3] [µM] | TGI [4] [µM] | other results
23 | COc1ccc2nc3cc([N+](=O)[O-])ccc3c(NCCCCCN(C)C)c2c1 | – | – | – | – | GI50 [5]: 1.77 µM; TGI [5]: 3.55 µM; GI50 [6]: 0.438 µM; TGI [6]: 1.57 µM; GI50 [7]: 0.0514 µM; TGI [7]: 1.04 µM; GI50 [8]: 0.271 µM; TGI [8]: 0.972 µM; GI50 [9]: 0.249 µM; TGI [9]: 1.93 µM
24 | Cc1cc(N(CCC#N)S(=O)(=O)c2ccccc2)ccc1/C=C1N=C(/C=C/c2ccccc2)OC\1=O | > 100 | – | > 100 | – | –
25 | CCCN=Cc1cc(Cc2ccc(O)c(C=NCCC)c2)ccc1O | – | – | – | – | TGI [5]: > 100 µM; TGI [6]: 10.1 µM; TGI [7]: 6.87 µM; TGI [8]: > 100 µM; TGI [9]: 33.5 µM
26 | CNC(=O)OCc1nc(SC2CCCCO2)n(C)c1COC(=O)NC (stereo not given) | > 100 | > 100 | > 100 | > 100 | TGI [10]: > 100 µM; TGI [7]: > 100 µM; TGI [11]: > 100 µM
27 | COc1cc(/C=C2\C(=O)N(C(=O)Cc3ccccc3)N=C2C)ccc1O | – | > 100 | > 100 | – | –
28 | COc1ccccc1NC(=O)CC(=O)N1N=C(C)C(N=Nc2ccc(S(N)(=O)=O)cc2)C1=O (stereo not given) | > 100 | > 100 | > 100 | – | –
29 | N#CC(C(=O)/C(=N/NC(=O)c1ccccc1O)C(C#N)c1ccc(Cl)cc1)c1ccc(Cl)cc1 (stereo not given) | 25.1 | 55.3 | 26.3 | – | –
30 | O=Cc1cn(C(=O)c2ccccc2)c2ccccc12 | > 100 | > 100 | – | – | –
31 | O=C(O)c1ccc([Se][Se]c2ccc(C(=O)O)cc2)cc1 | 62.4 | 40.5 | 81.1 | 52.6 | –
32 | COC(=O)CCC1CCc2c(OC)ccc(O)c2C1=O (stereo not given) | > 100 | > 100 | – | > 100 | –
33 | C[N+](C)(C)CC(=O)N/N=C(/Cc1nc2c3c(ccc2[nH]c1=O)C(=O)c1ccccc1C3=O)C(=O)Nc1ccc(Cl)c(Cl)c1 | – | > 100 | – | > 100 | –
34 | Cc1ccncc1.[O]=[Ge].[O]=[Ge].[O]=[Ge].[O]=[Ge].[O]=[Ge].[O]=[Ge][OH].[O]=[Ge][OH] | > 100 | > 100 | > 100 | > 100 | GI50 [1]: > 100 µM; GI50 [2]: > 100 µM; GI50 [3]: > 100 µM; GI50 [4]: > 100 µM
35 | COc1ccc2c(c1)C(O)(C(F)(F)F)c1cc(C(=O)C(F)(F)F)c3ccccc3c1N2 (stereo not given) | 22 | 28.2 | – | 34.6 | –
36 | Cc1occc1C(=S)Nc1ccc(Cl)c(COC(C)(C)C)c1 | – | – | – | – | TGI [5]: 33.6 µM; TGI [6]: 34.4 µM; TGI [7]: 31.6 µM; TGI [8]: 30.7 µM; TGI [9]: 32 µM
37 | CC(C)(C)OC(=O)C#CC[C@H]1CCCC1/C=C/C(O)=C1/C(=O)NC(CCCNC(=O)OC(C)(C)C)C1=O (stereo not given in full) | 53.8 | 67.9 | – | 44.9 | –
38 | Nc1cc2cccc[n+]2c2cc(Cl)ccc12 | – | – | – | – | GI50 [5]: 7.24 µM; TGI [5]: 25.2 µM; GI50 [6]: 12.6 µM; TGI [6]: 38.8 µM; GI50 [7]: 17.9 µM; TGI [7]: 63 µM; GI50 [8]: 15.7 µM; TGI [8]: 48.7 µM; GI50 [9]: 17.7 µM; TGI [9]: 51 µM
39 | CCN(CC)CCn1ccc(=O)c2cc3c(=O)ccn(CCN(CC)CC)c3c(C)c21 | 16.5 | 25.2 | 21.4 | 21.5 | TGI [5]: 29.2 µM; TGI [6]: 18 µM; TGI [7]: > 100 µM; TGI [8]: 16.7 µM; TGI [9]: 18.3 µM
40 | Cc1cccc(NC(=O)CC(=O)N2N=C(N(CCC#N)c3ccc(Cl)cc3)CC2c2ccccc2)c1 (stereo not given) | > 100 | > 100 | > 100 | > 100 | –
41 | CC1=NCCc2c1[nH]c1cc(O)ccc21 | > 100 | > 100 | > 100 | > 100 | –
42 | COc1nc(NC2OCC(OC(C)=O)C(OC(C)=O)C2OC(C)=O)c(N=CC=Nc2c(NC3OCC(OC(C)=O)C(OC(C)=O)C3OC(C)=O)nc(OC)n(C)c2=O)c(=O)n1C (stereo not given) | > 100 | > 100 | 95.9 | – | –
43 | O=c1c2c([nH]c3cc4c(cc13)OCO4)-c1ccccc1CC2 | > 100 | > 100 | > 100 | > 100 | –
44 | CC(=O)NNc1nc(C)c(C(=O)NNC(=O)C(=O)Nc2ccccc2C#N)s1 | > 100 | > 100 | – | > 100 | –
